Legend:
TNF-α mRNA = assay: qRT-PCR of TNFα in LPS-exposed BV2 cells; assay type: cell-based, mouse; details: 10 and 30 µM, 24 h LPS
Experimental: (§1) • Figure 1. Compound 1 reduces the inflammatory response against LPS in vitro. (A) Nitric oxide (NO) production in BV2 cells detected by DAF 24 h after LPS exposure and normalized by cell viability measured by MTT (n = 9). (B) qRT-PCR of TNFα (n = 9) in BV2 cells after 24 h LPS exposure. Sulforaphane (Sfn) was used as a positive control. […] Compound 1 decreases the inflammatory process 4 and 24 hours after LPS administration in vivo. Compound 1 (20 mg·kg^-1) daily was injected i.p. four days before the i.p. LPS (0.5 mg·kg^-1) administration. […] Compound 1 ameliorates the resolution of the inflammatory process triggered by LPS. […] (B) Locomotion activity measured by line crossings of an imaginary grid. […] Compound 1 reduced tau seeding in HEK-293 tau FRET biosensor measured by flow cytometer (C). […] Representative images of hyperphosphorylated tau intensity measured by AT8 and AT180 antibodies in three different regions of the hippocampus (GD, CA3 and CA1) (n = 11-12). (B) Quantification AT8 intensity, normalized to CA3 intensity of Sham animals. (C) Quantification of AT180 intensity, normalized to CA3 intensity of Sham animals (n = 9-12). […] Quantification of sarkosyl soluble (n = 10) (C) and insoluble species (D) using AT8 antibody (n = 10). Quantification of sarkosyl soluble (n = 10) (E) and insoluble species (F) using AT180 antibody (n = 10). […]

NRF2 = NRF2 induction, luciferase activity in AREc32 cells; assay type: cell-based; details: concentration that doubles the activation of NRF2, read-out: NRF2 CD
Description: Screening of NRF2 induction was quantified by luciferase activity in AREc32 cells as described in [Herrera-Arozamena, Clara et al. "Tuning melatonin receptor subtype selectivity in oxadiazolone-based analogues: Discovery of QR2 ligands and NRF2 activators with neurogenic properties." European journal of medicinal chemistry vol. 190 (2020): 112090. doi:10.1016/j.ejmech.2020.112090].
Based on the results obtained (Table 2), Compound 1 was selected for further in vitro and in vivo studies as it was endowed with the best anti-neuroinflammatory activity. Table 2: Comparative in vitro results. Cell viability/toxicity: effect of the compound per se on cell viability of […] cells measured with the MTT method. Anti-neuroinflammatory effect: % Reduction of nitrites in primary rat glial cultures. PAMPA-BBB: In vitro blood-brain barrier permeation assay, permeation rate Pe (10-6 cm.s-1). NRF2, CD (µM): Concentration of compound that doubles de activation of NRF2. ORAC: Oxygen radical absorbance capacity. LOX-5: lipoxygenase-5.

[1] = Oxygen Radical Absorbance Capacity Assay (ORAC); assay type: physicochemical; details: ORAC > 1.0 is a better ROS scavenger than trolox
Experimental: The Oxygen Radical Absorbance Capacity Assay (ORAC) was performed as described [Herrera-Arozamena, Clara et al. "Resveratrol-Based MTDLs to Stimulate Defensive and Regenerative Pathways and Block Early Events in Neurodegenerative Cascades." Journal of medicinal chemistry vol. 65,6 (2022): 4727-4751. doi:10.1021/acs.jmedchem.1c01883].

BV2 cells = assay: Nitric oxide detection with DAF in LPS-exposed BV2 cells; assay type: cell-based, mouse; details: 24 h LPS
Experimental: as §1

[2] = system: mouse cytokines, chemokines, and growth factors; assay: LPS in vivo model: multiplex assay of brain cytokines and chemokines (Luminex xMAP); details: 20 mg·kg^-1 i.p.
Experimental: • Figure 1. Compound 1 reduces the inflammatory response against LPS in vitro. (A) Nitric oxide (NO) production in BV2 cells detected by DAF 24 h after LPS exposure and normalized by cell viability measured by MTT (n = 9). (B) qRT-PCR of TNFα (n = 9) in BV2 cells after 24 h LPS exposure. Sulforaphane (Sfn) was used as a positive control. […] Compound 1 decreases the inflammatory process 4 and 24 hours after LPS administration in vivo. Compound 1 (20 mg·kg^-1) daily was injected i.p. four days before the i.p. LPS (0.5 mg·kg^-1) administration. […] Compound 1 ameliorates the resolution of the inflammatory process triggered by LPS. Multiplex assay of cytokines 4 h (A) and 24 h (B) after the proinflammatory stimuli (n = 5). […] Compound 1 reverts brain microgliosis triggered by LPS. Representative images of brain microglia 4 h and 24 h after the proinflammatory stimuli (A). Mean intensity of IBA-1 per cell 4 h (n = 10) and 24 h (n = 7, except n = 6 LPS + Compound 1) after LPS injection (B). […] Sub-chronical Compound 1 administration improves behavioural parameters in LPS treated mice. Compound 1 (20 mg·kg^-1) was injected once a day via i.p. four days before the i.p. LPS (0.5 mg·kg^-1) administration, thereafter behavioural tests were conducted. (A) Mice weight change (T0 and T24: saline n = 17, LPS n = 17, LPS + Compound 1 n = 19, T4 and T8 saline n = 8, LPS n = 7, LPS + Compound 1 n = 8). (B) Locomotion activity measured by line crossings of an imaginary grid. (C) Scheme of NOR test. (D) Discrimination index (DI) of the mice studied: saline (n = 16), LPS (n = 9) and LPS + Compound 1 (n = 13). […] Compound 1 reduces hyperphosphorylated tau species and tau seeding in vitro. Compound 1 reduces hyperphosphorylated tau levels (AT8) in primary neuronal cultures of mice after 8 days of AVV-hTauP301L treatment. Dimethyl fumarate was used as a positive control (DMF). (A) Representative images, AT8 is shown in green and Map2, marker of neurons, is shown in white. […] Compound 1 reduced tau seeding in HEK-293 tau FRET biosensor measured by flow cytometer (C). Tg4510 mouse brain homogenate was used as aggregant stimuli. […] Data represent mean ± SEM. • Figure 7. Compound 1 reduces hyperphosphorylated tau species in adult mice with hTauP301L tauopathy after 35 days oral administration (50 mg/kg/day). (A). Representative images of hyperphosphorylated tau intensity measured by AT8 and AT180 antibodies in three different regions of the hippocampus (GD, CA3 and CA1) (n = 11-12). (B) Quantification AT8 intensity, normalized to CA3 intensity of Sham animals. (C) Quantification of AT180 intensity, normalized to CA3 intensity of Sham animals (n = 9-12). […] Compound 1 reduces insoluble forms of hyperphosphorylated tau species in adult mice with hTauP301L tauopathy after 35 days oral administration (50 mg/kg/day). (A). Representative images of WB against AT8 and (B) AT180 antibodies of sarkosyl solule and insoluble protein species. Quantification of sarkosyl soluble (n = 10) (C) and insoluble species (D) using AT8 antibody (n = 10). Quantification of sarkosyl soluble (n = 10) (E) and insoluble species (F) using AT180 antibody (n = 10). […] Compound 1 prevents cognitive decline in spatial memory behavioural paradigms in adult mice with hTauP301L tauopathy after 35 days oral administration (20 mg/kg or 50 mg/kg/day). (A) Representation of T-maze alternation test and (B) Object Location test (OLT). (C) Average percentage of success in seven independent attempts (n = 14-19). (D) Discrimination index in the OLT assay (AAV-eGFP, n = 15; AAV-hTau, n = 10; AAV-hTau + Compound 1 at 20 mg/kg, n = 5; AAV-hTau + Compound 1 at 50 mg/kg, n = 8). […] Compound 1 reduces hyperphosphorylated tau species and improves cognitive behaviour in aged (16-18 months old) mice with hTauP301L tauopathy after 35 days oral administration (50 mg/kg/day). (A). Representative images of hyperphosphorylated tau intensity measured by AT8 and AT180 antibodies in three different regions of the hippocampus (GD, CA3 and CA1) (n = 12). […]

[3] = system: proinflammatory cytokines; assay: LPS in vivo model: brain cytokine mRNAs by qRT-PCR; set-up: species or system mouse; details: 20 mg·kg^-1 i.p. daily for 4 days; 4 h and 24 h after LPS 0.5 mg·kg^-1 i.p.
Experimental: as §1

COc1ccc2c(c1)CC(c1c[nH]c3ccc(OC)cc13)N2 (stereo not drawn) [Compound 1, 5-Methoxy-3-(5-methoxyindolin-2-yl)-1H-indole]
TNF-α mRNA (TNF-α mRNA): reduced | EC (2-fold activation) (NRF2): 0.56 ± 0.05 µM | ORAC (trolox equiv.) [1]: 2.3 ± 0.3 trolox equiv. | NO production (BV2 cells; 10 µM, BV2 cells): reduced to basal levels | nitric oxide (NO) in BV2 cells exposed to LPS (BV2 cells; over the concentrations tested): concentration-dependent reduction | IP10 ([2]; 4 and 24 h after LPS): decreased significantly | KC ([2]; 4 and 24 h after LPS): decreased significantly | MIP2 ([2]; 4 and 24 h after LPS): decreased significantly | RANTES ([2]; 4 and 24 h after LPS): decreased significantly | IL-6 in brain ([2]; 4 h after LPS): marked reduction | IL-7 in brain ([2]; 4 h after LPS): marked reduction | MCP-1 ([2]; 4 h after LPS): decreased significantly | Additional cytokines (Figure 3) ([2]; 4 h and 24 h after LPS, most of them): decreased with compound treatment | IL-6 in brain ([2]; 24 h after LPS): restored to basal conditions | IL-7 in brain ([2]; 24 h after LPS): restored to basal conditions | granulocyte-colony stimulating factor (G-CSF) brain levels ([2]; after LPS): significantly reduced | IL-1β mRNA in brain [3]: reduced | TNFα mRNA in brain [3]: reduced
